Values quoted from earlier work in patent US4008220A, “Penicillins” (Sumitomo Chemical Company, Limited, priority 1972, dated 1977).

Tests used:
[1] = test system: various gram-positive and gram-negative bacteria; details: in words; cited from earlier work
Pseudomonas = details: in words; cited from earlier work

CC1(C)S[C@@H]2C(NC(=O)C(N)c3ccccc3)C(=O)N2[C@H]1C(=O)O (stereo partly drawn) [Ampicillin, 6-(α-aminophenylacetamido)-penicillanic acid]
growth inhibition / antimicrobial activity against gram-positive and gram-negative bacteria [1]: inhibits the growth of various gram-positive and gram-negativebacteria | antimicrobial activity against Pseudomonas (Pseudomonas): does not exert any appreciable antimicrobial activity against Pseudomonas
